Assay results from patent US20050074777A1, “Novel cell-surface estrogen receptor and related compositions and methods” (priority 2002, published 2005).
“Also recorded” adds a separate entry of the source.

Columns and labels:
ERK1/2 phosphorylation [1] = details: neocortical explants (Singh, 2000); cited from earlier work
[2] = tested on: ER-X (plasma-membrane estrogen binding site of P7 ERKO neocortex); test: Specificity (competition) of 3H-estradiol binding in Percoll-purified P7 ERKO neocortical membranes; set-up: species or system mouse; details: 2 nM 3H-estradiol, 18 hours at 4° C.
Procedure: Binding of ^3H estradiol to Percoll®-purified plasma-membranes from P7 ERKO and wild-type mouse neocortex. (a) Identical amounts of membrane protein (50 μg/tube) were incubated with varying concentrations of ^3H estradiol (0.3-8 nM) for 18 hours at 4° C. The reaction was terminated by addition of hydroxylapatite (HAP). The membranes and HAP were sedimented by centrifugation in a microfuge, and the pellet washed 4 times to remove free steroid. Radioactivity in the pellets was extracted with ethanol and counted. […] (b) Specificity of the binding site in Percoll®-purified membranes from P7 ERKO mouse neocortex. […] Bound ^3H estradiol was separated by sedimentation with HAP and counted at an efficiency of 50%. Data represent the number of bound counts (after subtraction of HAP-only blank control tubes, containing no membrane protein) expressed as the means +/−S.D. of triplicate determinations. The horizontal dashed line indicates the level of non-specific binding observed in the presence of 1 μM DES. Estrogen binding assay. Duplicate aliquots of 1 mg each of protein lysate from ERKO P7 neocortex or wild-type adult uterus were pre-cleared for 30 minutes using anti-rabbit-IgG-coated magnetic beads (Dynal AS). Pre-cleared protein lysates were immunoprecipitated with anti-ER-α antibodies (6F11, Novocastra; or MC20, Santa Cruz) at 4° C. overnight. […] NEN Life Sciences, Boston, Mass.) at 4° C. for 18 hours. The incubation was terminated by adsorption of the binding sites onto an equal volume of hydroxylapatite (HAP) slurry in TESD buffer. HAP pellets were washed four times with Tris-buffered saline containing 0.2% Tween-20 buffer and extracted with 1 ml absolute ethanol overnight at room temperature. The ethanol supernatants were transferred to liquid scintillation fluid (5 ml) and counted. Control tubes, used in assessing HAP adsorption of free steroid, contained HAP and the same buffer constituents, without addition of the membranes. Non-specific binding was assayed in the membranes using the same amount of radioactive ligand plus 200-fold molar excess of unlabeled diethylstilbestrol (DES) (Sigma-Aldrich). Specific binding was calculated by subtracting non-specific from total binding.

ERK1/2 phosphorylation [3] = test: ERK1/2 phosphorylation in post-nuclear supernatant (PNS), cell-free system; type: biochemical, mouse; details: for phosphorylation of ERK1 and ERK2: P7 wild-type neocortical PNS, 10 minutes, 37° C.
Text: Isolation of post-nuclear supernatant (PNS). To increase the yield of ER-X and to test in a cell-free system whether the presence of ER-α is inhibitory for ERK activation, as had been shown previously in neocortical cultures (Singh, 2000), PNS, a cell-free system which contains all the cell organelles except the nucleus, was studied. PNS was isolated from P7 wild-type and ERKO neocortices according to the method of Smart et al. (Smart, 1995). Three to four P7 wild-type and ERKO neocortices were homogenized using a teflon homogenizer in 1 ml of 20 mM Tricine, pH 7.8 buffer, containing 1 mM EDTA, 0.25M sucrose, 10 μg/ml aprotinin and 1 μg/ml leupeptin. The homogenate was centrifuged at 1000×g at 4° C. for 10 minutes. The supernatant obtained is the PNS. The pellet was resuspended in 500 μl of the homogenization buffer, re-centrifuged, and the PNS obtained was pooled with the first PNS. ERKO and wild-type PNS were mixed with 10X phosphorylation buffer, and the MAPK assay was performed as described above.

ERK1/2 phosphorylation [4] = test: Phosphorylation of ERK1/2 in ERKO CLM and non-CLM preparations; type: biochemical, mouse; details: for phosphorylation of ERK1/2: 30 minutes
Procedure: Phosphorylation of ERK1/2 in CLM and non-CLM preparations. Phosphorylation of ERK1/2 in ERKO CLM and non-CLM preparations was examined following the method of Liu et al. (Liu, 1997), except that basal medium Eagle (BME) was used in the place of MEM. Nine parts of CLM or non-CLM preparations were mixed with one part of 10×BME, pH 7.4 containing BSA 800 μg/ml, 10 mM NaF, 2 mM Na3VO4, leupeptin 100 μg/ml, soybean trypsin inhibitor 100 μg/ml, 10 mM MgCl2, and 1 mM ATP. […] Cell Signaling Technology, Beverly, Mass.) for 30 minutes prior to pulsing them with the appropriate estradiol. […] (Singh, 1999; and Singh, 2000).

ERK1/2 phosphorylation [5] = test: ERK1/2 phosphorylation in neocortical explant cultures (Western immunoblot); type: cell-based, mouse; details: wild-type neocortical cultures
Procedure: Neocortical cultures. Organotypic explant cultures, obtained from 360 pm hemi-coronal slices of the frontal and cingulate neocortex of P2 wild-type and ERKO mice (day of birth =P1), were explanted onto collagen-coated, poly-D-lysine pre-coated coverslips and maintained in roller tube culture with gonadal steroid-deficient (gelding serum) and phenol red-free nutrient medium, as previously described (Singh, 1999; and Singh, 2000). The nutrient medium was supplemented with 17β-estradiol (2 nM; Sigma-Aldrich, St. Louis, Mo.) for one week, in order to optimize the development of CNS cultures from estrogen target regions. […]
Antibody binding to protein was detected using a secondary antibody conjugated to horseradish peroxidase (1:40,000; Pierce Chemical Company, Rockford, Ill.), and visualized autoradiographically on film using enzyme-linked chemiluminescence (ECL®; Amersham Pharmacia Biotech) (Singh et, 1999; and Singh, 2000). All blots were stripped and re-probed with the appropriate antibody to verify equal loading of protein across lanes and were analyzed densitometrically. […]

[6] = tested on: estrogen-binding protein (ER-X); test: DES-sensitive 3H-estradiol binding in CLM preparations and lysates; set-up: species or system mouse; details: unlabeled competitor in excess
Procedure: Caveolar-like membrane (CLM) preparation. Membrane fractions were prepared by adapting the detergent-free method of Smart et al. (Smart, 1995). Briefly, pools of 40-50 P7 ERKO neocortices were homogenized in 20 mM Tricine, pH 7.8 buffer, containing 1 mM EDTA, 0.25M sucrose and 1 mM dithiothreitol (TESD buffer), then centrifuged at 1000×g at 4° C. for 10 minutes. The pellet was resuspended in TESD buffer, re-centrifuged, and the supernatants pooled. The combined supernatants were subjected to Percoll® gradient fractionation in the same buffer to isolate the plasma membrane fraction. In some binding experiments (indicated below), Percoll® purified plasma membranes were used without further fractionation. For preparation of CLMs, plasma-membranes were sonicated and further separated by centrifugation on a linear 20% to 10% OptiPrep (iodixanol) gradient (Nycomed Pharma AS, Oslo, Norway). Based upon their light buoyant density, CLMs were separated and purified from non-CLMs using two OptiPrep density gradients. […] Electrophoretically separated CLMs on PVDF membranes were probed with antibodies specific for ER-α ([…], UBI; MC20, Santa Cruz), ER-β (Zymed), flotillin (BD Transduction Labs) and other caveolar-resident proteins (PKC-α and PKC-γ, BD Transduction Labs) and non-caveolar-resident proteins (paxillin, BD Transduction Labs). Estrogen binding assay. Duplicate aliquots of 1 mg each of protein lysate from ERKO P7 neocortex or wild-type adult uterus were pre-cleared for 30 minutes using anti-rabbit-IgG-coated magnetic beads (Dynal AS). Pre-cleared protein lysates were immunoprecipitated with anti-ER-α antibodies (6F11, Novocastra; or MC20, Santa Cruz) at 4° C. overnight. […] NEN Life Sciences, Boston, Mass.) at 4° C. for 18 hours. The incubation was terminated by adsorption of the binding sites onto an equal volume of hydroxylapatite (HAP) slurry in TESD buffer. HAP pellets were washed four times with Tris-buffered saline containing 0.2% Tween-20 buffer and extracted with 1 ml absolute ethanol overnight at room temperature. The ethanol supernatants were transferred to liquid scintillation fluid (5 ml) and counted. Control tubes, used in assessing HAP adsorption of free steroid, contained HAP and the same buffer constituents, without addition of the membranes. Non-specific binding was assayed in the membranes using the same amount of radioactive ligand plus 200-fold molar excess of unlabeled diethylstilbestrol (DES) (Sigma-Aldrich). Specific binding was calculated by subtracting non-specific from total binding.

ERK1/2 phosphorylation [7] = test: Cholesterol depletion: ERK1/2 phosphorylation in neocortical explants pre-treated with Nystatin; type: cell-based, mouse; details: P9 wild-type neocortical explants, 50 μg/ml for 1 hour before a 30 minute pulse
Procedure: Cholesterol depletion. To determine whether disruption of CLMs impairs estrogen activation of the MAPK cascade, neocortical explants were pre-treated on P9 with the sterol binding agent Nystatin (50 μg/ml) (Sigma-Aldrich), a compound used extensively to document the association of growth factor receptors with caveolae/CLMs (Huang, 1999). […] P9 neocortical explants were exposed to Nystatin (50 μg/ml) (Sigma-Aldrich), BDNF (10 ng/ml) or vehicle control (PBS) for 1 hour prior to pulsing with 10 nM 17β-estradiol for 30 minutes in the continued presence of Nystatin, BDNF or vehicle. Explants were then analyzed by Western immunoblot analysis for phospho-ERK expression using antibodies to phosphorylated p44/42 MAP Kinase (ERK1/2, Thr202/Tyr204; Cell Signaling Technology), as previously described (Singh, 1999; and Singh, 2000).

[8] = 1 μM unlabelled competitor (500-fold molar excess)

Question: Which “activation of ERK1/2 by ER-α- or ER-β-selective ligands” value (ERK1/2 phosphorylation [1]) does the source give for `C[C@]12CC[C@@H]3c4ccc(O)cc4CC[C@H]3[C@@H]1C[C@@H](I)[C@@H]2O` [16α-iodo-17β-estradiol] here?
Answer: The value was “not activated”.

Question: Which “inhibition of binding of 3H-estradiol” value ([2]; 50 nM unlabelled competitor) does the source give for `C[C@]12CC[C@@H]3c4ccc(O)cc4CC[C@H]3[C@@H]1CC[C@H]2O` [17α-estradiol] here?
Answer: The value was “markedly inhibited”.

Question: And the “inhibition of binding of 3H-estradiol” value [2, 8]?
Answer: The value was “reduced to the non-specific levels”.

Question: What about the “phosphorylation of ERK1 and ERK2” value (ERK1/2 phosphorylation [3]; 0.1 nM) of the same compound?
Answer: The value was “elicited MEK-dependent (U0126) phosphorylation of ERK1 and ERK2”.

Question: And the “phosphorylation of ERK1/2” value (ERK1/2 phosphorylation [4]; P7 ERKO neocortical CLMs, 0.1 nM)?
Answer: The value was “elicited phosphorylation of ERK1/2”.

Question: And the “phosphorylation of ERK1/2” value (ERK1/2 phosphorylation [4]; non-CLM regions of the plasma membrane, 0.1 nM)?
Answer: Its value is “did not respond”.

Question: For `C[C@]12CC[C@@H]3c4ccc(O)cc4CC[C@H]3[C@@H]1CC[C@@H]2O` [17β-estradiol], which “inhibition of binding of 3H-estradiol” value ([2]; 50 nM unlabelled competitor) is on record?
Answer: Its value is “markedly inhibited”.

Question: And the “inhibition of binding of 3H-estradiol” value [2, 8]?
Answer: Its value is “reduced to the non-specific levels”.

Question: And the “phosphorylation of ERK1 and ERK2” value (ERK1/2 phosphorylation [3]; 10 nM)?
Answer: Its value is “significantly less than the levels following exposure to 17α-estradiol; also recorded: elicited MEK-dependent (U0126) phosphorylation of ERK1 and ERK2”.

Question: And the “phosphorylation of ERK1/2” value (ERK1/2 phosphorylation [4]; P7 ERKO neocortical CLMs, 10 nM)?
Answer: The value was “elicited phosphorylation of ERK1/2”.

Question: What about the “phosphorylation of ERK1/2” value (ERK1/2 phosphorylation [4]; non-CLM regions of the plasma membrane, 10 nM) of the same compound?
Answer: Its value is “did not respond”.

Question: What about the “concentration range eliciting activation of ERK1/2” value (ERK1/2 phosphorylation [5]) of the same compound?
Answer: Its value is 0.1 to 10 nM.

Question: Which “effect on binding of 10 nM 3H-estradiol to P7 ERKO CLMs” value [6] does the source give for `CC/C(=C(/CC)c1ccc(O)cc1)c1ccc(O)cc1` [DES, diethylstilbestrol] here?
Answer: Its value is “suppressed”.

Question: For `C[C@@H]1[C@H](O)[C@@H](C)/C=C/C=C/CC/C=C/C=C/C=C/C=C/C(O[C@H]2O[C@H](C)[C@@H](O)[C@H](N)[C@@H]2O)CC2O[C@](O)(CC(O)C(O)CCC(O)CC(O)CC(O)CC(=O)O[C@H]1C)CC(O)C2C(=O)O` (stereo partly shown) [Nystatin], which “effect on ERK1/2 phosphorylation elicited by 17β-estradiol (10 nM) and BDNF” value (ERK1/2 phosphorylation [7]) is on record?
Answer: The value was “decreased the ability of both estradiol and BDNF to elicit ERK1/2 phosphorylation”.

Question: For `N#CC(=C(/N)Sc1ccccc1N)/C(C#N)=C(\N)Sc1ccccc1N` [U0126], which “effect on estradiol-induced ERK1/2 phosphorylation” value (ERK1/2 phosphorylation [3]; wild-type neocortical PNS, 10 μM) is on record?
Answer: The value was “inhibited”.

Question: And the “effect on estradiol-induced ERK activation” value (ERK1/2 phosphorylation [4]; P7 ERKO neocortical CLMs, 10 μM, 30 minutes pre-treatment)?
Answer: The value was “inhibited”.

Question: For `O=c1oc2cc(O)ccc2c2oc3cc(O)ccc3c12` [coumestrol], which “activation of ERK1/2 by ER-α- or ER-β-selective ligands” value (ERK1/2 phosphorylation [1]) is on record?
Answer: Its value is “not activated”.

Question: For `O=c1c(-c2ccc(O)cc2)coc2cc(O)cc(O)c12` [genistein], which “activation of ERK1/2 by ER-α- or ER-β-selective ligands” value (ERK1/2 phosphorylation [1]) is on record?
Answer: The value was “not activated”.

Question: Which “inhibition of binding of 3H-estradiol” value [2, 8] does the source give for `CC(=O)[C@H]1CC[C@H]2[C@@H]3CCC4=CC(=O)CC[C@]4(C)[C@H]3CC[C@]12C` [progesterone] here?
Answer: Its value is “only partially suppressing binding”.
